Measurements taken from patent US20160375006A1, “USES OF PARALOG-SELECTIVE INHIBITORS OF GSK3 KINASES” (priority 2012, published 2016).

Key:
CDC2/CycB1 = CDC2/CycB1 (Homo sapiens, UniProt P06493)
Method: (§1) This was completed utilizing one of two assays depending on the kinase being examined.
(§2) A solution of IMAP binding reagent (IMAP Screening Express kit; Molecular Devices) (60 μL) was added to each well and incubated for 30 minutes.
(§3) A solution of termination buffer (QuickScout Screening assist MSA; Carna Biosciences) (60 μL) was added to each well. The entire reaction mixture was then applied to a LabChip3000 system (Caliper Life Science) and the product and substrate peptide peaks were separated and quantified.
(§4) The assay utilized was identical to that of the single point inhibitory activity determination (MSA) but run in dose response. […] A solution of termination buffer (QuickScout Screening assist MSA; Carna Biosciences) (60 μL) was added to each well. The entire reaction mixture was then applied to a LabChip3000 system (Caliper Life Science) and the product and substrate peptide peaks were separated and quantified.

IGF1R = IGF1R (Homo sapiens, UniProt P08069)
Method: as §1, §2, §3, §4

CDC7/ASK = CDC7/ASK (Homo sapiens, UniProt O00311)
Method: as §1, §2, §3, §4

NEK7 = NEK7 (Homo sapiens, UniProt Q8TDX7)
Method: as §1, §2, §3, §4

MAP2K5_Cascade = MAP2K5_Cascade (Homo sapiens, UniProt Q13163)
Method: as §2, §3, §4

FGR = FGR (Homo sapiens, UniProt P09769)
Method: as §1, §2, §3, §4

PKR = target: T1, PKR (Homo sapiens, UniProt P19525); experiment: Carna kinase panel; assay type: biochemical
T1 construct: purchased Carna Biosciences
Method: as §1, §2, §3

NEK1 = NEK1 (Homo sapiens, UniProt Q96PY6)
Method: as §1, §2, §3

TAK1-TAB1_Cascade = TAK1-TAB1_Cascade (Homo sapiens, UniProt O43318)
Method: as §1, §2, §3, §4

Erk5 = target: T2, Erk5 (Homo sapiens, UniProt Q13164); experiment: Carna kinase panel; assay type: biochemical
T2 construct: purchased Carna Biosciences
Method: as §1, §2, §3

MAP2K2_Cascade = MAP2K2_Cascade (Homo sapiens, UniProt P36507)
Method: as §1, §2, §3

RET(M918T) = RET(M918T) (Homo sapiens, UniProt P07949, M918T)
Method: as §1, §2, §3, §4

CLK2 = CLK2 (Homo sapiens, UniProt P49760)
Method: as §1, §2, §3, §4

EPHA2 = EPHA2 (Homo sapiens, UniProt P29317)
Method: as §1, §2, §3, §4

MINK = MINK (Homo sapiens, UniProt Q8N4C8)
Method: as §1, §2, §3, §4

SYK = SYK (Homo sapiens, UniProt P43405)
Method: as §1, §2, §3, §4

FGFR3(K650M) = FGFR3(K650M) (Homo sapiens, UniProt P22607, K650M)
Method: as §2, §3, §4

PHKG1 = PHKG1 (Homo sapiens, UniProt Q16816)
Method: as §1, §2, §3, §4

ARG = ARG (Homo sapiens, UniProt P42684)
Method: as §1, §2, §3

BRSK1 = BRSK1 (Homo sapiens, UniProt Q8TDC3)
Method: as §1, §2, §3, §4

CDK7/CycH/MAT1 = CDK7/CycH/MAT1 (Homo sapiens, UniProt P50613)
Method: as §1, §2, §3, §4

DYRK1A = DYRK1A (Homo sapiens, UniProt Q13627)
Method: as §1, §2, §3, §4

JNK2 = JNK2 (Homo sapiens, UniProt P45984)
Method: as §1, §2, §3, §4

HIPK3 = HIPK3 (Homo sapiens, UniProt Q9H422)
Method: as §1, §2, §3, §4

PGK = PGK (Homo sapiens, UniProt Q13976)
Method: as §1, §2, §3, §4

WNK2 = WNK2 (Homo sapiens, UniProt Q9Y3S1)
Method: as §1, §2, §3, §4

CHK1 = CHK1 (Homo sapiens, UniProt O14757)
Method: as §1, §2, §3, §4

CRIK = CRIK (Homo sapiens, UniProt O14578)
Method: as §1, §2, §3

PASK = PASK (Homo sapiens, UniProt Q96RG2)
Method: as §1, §2, §3, §4

EGFR(d746-750/T790M) = EGFR(d746-750/T790M) (Homo sapiens, UniProt P00533, DEL746-750/T790M)
Method: as §1, §2, §3, §4

YES = YES (Homo sapiens, UniProt P07947)
Method: as §1, §2, §3

AurA = AurA (Homo sapiens, UniProt O14965)
Method: as §1, §3
The assay utilized was identical to that of the single point inhibitory activity determination (MSA) but run in dose response.

MAP4K2 = MAP4K2 (Homo sapiens, UniProt Q12851)
Method: as §1, §2, §3, §4

AXL = AXL (Homo sapiens, UniProt P30530)
Method: as §1, §2, §3

CaMK4 = CaMK4 (Homo sapiens, UniProt Q16566)
Method: as §1, §2, §3, §4

TXK = TXK (Homo sapiens, UniProt P42681)
Method: as §1, §2, §3, §4

KIT(D816V) = KIT(D816V) (Homo sapiens, UniProt P10721, D816V)
Method: as §1, §2, §3, §4

CaMK2β = CaMK2β (Homo sapiens, UniProt Q13554)
Method: as §1, §2, §3, §4

ABL(E255K) = ABL(E255K) (Homo sapiens, UniProt P00519, E255K)
Method: as §1, §2, §3

SRC = SRC (Homo sapiens, UniProt P12931)
Method: as §1, §2, §3, §4

Chain of EGFR(d746-750/T790M) (P00533 with tags, fused parts or gaps DEL746-750/T790M limits assumed): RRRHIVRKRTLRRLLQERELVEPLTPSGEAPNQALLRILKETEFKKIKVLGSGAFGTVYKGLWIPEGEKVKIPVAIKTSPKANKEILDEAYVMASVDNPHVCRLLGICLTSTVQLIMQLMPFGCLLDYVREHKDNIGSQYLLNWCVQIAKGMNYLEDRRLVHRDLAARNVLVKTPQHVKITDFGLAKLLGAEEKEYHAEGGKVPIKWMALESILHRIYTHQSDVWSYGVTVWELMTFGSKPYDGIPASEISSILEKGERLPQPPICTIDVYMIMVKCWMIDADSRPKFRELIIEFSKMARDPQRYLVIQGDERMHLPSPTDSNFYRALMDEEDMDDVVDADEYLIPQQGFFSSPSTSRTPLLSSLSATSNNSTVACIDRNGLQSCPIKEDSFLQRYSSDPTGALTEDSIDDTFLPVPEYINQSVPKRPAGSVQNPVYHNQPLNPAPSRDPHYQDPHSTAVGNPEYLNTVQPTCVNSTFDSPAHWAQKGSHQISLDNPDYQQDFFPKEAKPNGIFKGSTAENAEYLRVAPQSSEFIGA
Chain of RET(M918T) (P07949 29-1114 M918T): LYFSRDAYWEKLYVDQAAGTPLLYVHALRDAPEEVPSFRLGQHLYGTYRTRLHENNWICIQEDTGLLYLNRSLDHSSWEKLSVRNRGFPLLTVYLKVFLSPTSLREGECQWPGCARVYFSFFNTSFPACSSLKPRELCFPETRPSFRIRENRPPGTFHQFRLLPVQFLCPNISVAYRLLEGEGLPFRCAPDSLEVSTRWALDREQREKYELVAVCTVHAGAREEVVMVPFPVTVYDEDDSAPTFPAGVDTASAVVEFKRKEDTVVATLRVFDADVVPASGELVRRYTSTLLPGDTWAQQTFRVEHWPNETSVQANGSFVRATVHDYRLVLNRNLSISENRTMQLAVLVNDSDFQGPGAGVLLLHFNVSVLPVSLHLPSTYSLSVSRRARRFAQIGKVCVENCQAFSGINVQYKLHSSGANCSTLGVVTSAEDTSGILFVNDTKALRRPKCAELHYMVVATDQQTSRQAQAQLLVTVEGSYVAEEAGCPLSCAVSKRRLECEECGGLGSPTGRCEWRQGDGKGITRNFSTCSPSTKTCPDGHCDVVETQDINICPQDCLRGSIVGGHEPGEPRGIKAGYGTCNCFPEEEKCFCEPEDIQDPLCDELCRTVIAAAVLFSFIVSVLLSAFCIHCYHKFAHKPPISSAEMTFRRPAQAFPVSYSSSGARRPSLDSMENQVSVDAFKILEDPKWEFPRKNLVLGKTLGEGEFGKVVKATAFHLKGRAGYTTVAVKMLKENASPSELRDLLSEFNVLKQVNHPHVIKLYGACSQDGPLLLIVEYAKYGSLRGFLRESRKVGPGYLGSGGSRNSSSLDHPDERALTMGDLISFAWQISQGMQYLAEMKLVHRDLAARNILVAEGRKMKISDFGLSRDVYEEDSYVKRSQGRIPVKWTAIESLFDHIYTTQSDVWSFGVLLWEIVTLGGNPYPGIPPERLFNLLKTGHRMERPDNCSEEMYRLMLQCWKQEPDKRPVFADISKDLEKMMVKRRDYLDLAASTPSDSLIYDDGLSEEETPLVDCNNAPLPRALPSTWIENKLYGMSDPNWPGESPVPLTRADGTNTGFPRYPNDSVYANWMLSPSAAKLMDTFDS
Chain of JNK2 (P45984 whole entry): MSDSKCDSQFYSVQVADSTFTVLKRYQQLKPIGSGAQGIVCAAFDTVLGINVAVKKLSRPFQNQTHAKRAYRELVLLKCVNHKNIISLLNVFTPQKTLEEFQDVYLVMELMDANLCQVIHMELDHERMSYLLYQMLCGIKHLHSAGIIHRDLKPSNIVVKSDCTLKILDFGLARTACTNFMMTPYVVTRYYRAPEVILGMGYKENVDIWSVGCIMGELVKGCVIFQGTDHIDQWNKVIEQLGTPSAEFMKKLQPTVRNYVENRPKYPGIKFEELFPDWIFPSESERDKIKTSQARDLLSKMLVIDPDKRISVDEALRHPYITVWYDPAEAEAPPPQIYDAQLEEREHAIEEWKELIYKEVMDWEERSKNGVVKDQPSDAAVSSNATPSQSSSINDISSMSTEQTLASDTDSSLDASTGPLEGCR
Chain of NEK7 (Q8TDX7 whole entry): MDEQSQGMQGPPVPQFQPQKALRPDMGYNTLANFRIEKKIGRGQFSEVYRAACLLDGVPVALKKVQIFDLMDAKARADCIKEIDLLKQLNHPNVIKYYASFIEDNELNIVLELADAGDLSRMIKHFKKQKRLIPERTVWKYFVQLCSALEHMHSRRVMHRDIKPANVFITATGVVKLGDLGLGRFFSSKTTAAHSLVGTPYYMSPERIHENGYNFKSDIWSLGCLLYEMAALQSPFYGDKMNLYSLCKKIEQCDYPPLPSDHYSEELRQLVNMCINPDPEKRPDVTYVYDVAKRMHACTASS
Chain of CDK7/CycH/MAT1 (P50613 whole entry): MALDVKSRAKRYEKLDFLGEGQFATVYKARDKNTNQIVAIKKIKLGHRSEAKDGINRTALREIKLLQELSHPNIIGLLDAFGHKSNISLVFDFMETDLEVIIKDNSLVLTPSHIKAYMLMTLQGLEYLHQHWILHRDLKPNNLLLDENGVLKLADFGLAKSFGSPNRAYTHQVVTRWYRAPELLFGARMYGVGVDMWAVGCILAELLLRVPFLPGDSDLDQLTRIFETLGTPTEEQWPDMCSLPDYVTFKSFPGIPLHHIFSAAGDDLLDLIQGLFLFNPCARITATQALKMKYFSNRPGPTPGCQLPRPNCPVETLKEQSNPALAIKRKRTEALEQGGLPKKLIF
Chain of CDK7/CycH/MAT1 (P51946 whole entry partner): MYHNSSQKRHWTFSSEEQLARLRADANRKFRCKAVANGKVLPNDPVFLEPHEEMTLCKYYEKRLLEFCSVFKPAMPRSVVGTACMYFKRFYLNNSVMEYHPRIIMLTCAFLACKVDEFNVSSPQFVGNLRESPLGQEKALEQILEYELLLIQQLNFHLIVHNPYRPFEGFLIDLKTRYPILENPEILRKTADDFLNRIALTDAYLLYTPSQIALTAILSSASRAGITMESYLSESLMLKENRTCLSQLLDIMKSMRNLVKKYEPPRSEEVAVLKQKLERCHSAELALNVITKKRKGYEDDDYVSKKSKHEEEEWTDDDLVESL
Chain of CDK7/CycH/MAT1 (P51948 whole entry partner): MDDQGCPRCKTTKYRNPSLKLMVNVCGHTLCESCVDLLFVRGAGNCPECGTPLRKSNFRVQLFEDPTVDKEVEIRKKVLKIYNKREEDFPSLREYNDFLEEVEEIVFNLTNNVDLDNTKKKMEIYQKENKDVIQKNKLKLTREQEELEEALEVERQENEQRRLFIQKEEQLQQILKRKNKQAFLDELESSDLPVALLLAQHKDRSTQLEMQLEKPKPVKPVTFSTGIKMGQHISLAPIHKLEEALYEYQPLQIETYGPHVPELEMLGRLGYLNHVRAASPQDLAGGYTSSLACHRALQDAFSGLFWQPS
Chain of CHK1 (O14757 whole entry): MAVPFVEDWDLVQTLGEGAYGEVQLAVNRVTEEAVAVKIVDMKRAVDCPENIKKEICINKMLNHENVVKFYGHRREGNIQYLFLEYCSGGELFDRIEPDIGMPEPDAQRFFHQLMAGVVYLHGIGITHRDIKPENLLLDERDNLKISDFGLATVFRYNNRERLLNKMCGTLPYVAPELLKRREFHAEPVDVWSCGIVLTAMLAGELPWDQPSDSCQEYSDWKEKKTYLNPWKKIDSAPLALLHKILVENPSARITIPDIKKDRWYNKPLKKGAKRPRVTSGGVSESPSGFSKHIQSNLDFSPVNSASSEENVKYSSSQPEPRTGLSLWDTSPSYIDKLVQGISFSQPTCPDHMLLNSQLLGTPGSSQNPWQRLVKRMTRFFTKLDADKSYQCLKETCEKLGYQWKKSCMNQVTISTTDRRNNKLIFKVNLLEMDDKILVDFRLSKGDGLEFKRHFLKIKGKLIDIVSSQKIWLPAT
Chain of AurA (O14965 whole entry): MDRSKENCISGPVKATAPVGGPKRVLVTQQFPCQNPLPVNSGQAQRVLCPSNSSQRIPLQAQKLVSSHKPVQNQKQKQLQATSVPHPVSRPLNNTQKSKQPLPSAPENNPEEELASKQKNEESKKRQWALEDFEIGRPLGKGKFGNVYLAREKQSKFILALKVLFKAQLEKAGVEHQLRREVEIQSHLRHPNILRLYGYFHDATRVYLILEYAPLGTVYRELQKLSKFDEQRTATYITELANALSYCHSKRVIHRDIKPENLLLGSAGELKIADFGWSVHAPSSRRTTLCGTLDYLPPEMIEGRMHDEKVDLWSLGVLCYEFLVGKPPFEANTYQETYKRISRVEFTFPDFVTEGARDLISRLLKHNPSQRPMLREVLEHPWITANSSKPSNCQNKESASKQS
Chain of TXK (P42681 whole entry): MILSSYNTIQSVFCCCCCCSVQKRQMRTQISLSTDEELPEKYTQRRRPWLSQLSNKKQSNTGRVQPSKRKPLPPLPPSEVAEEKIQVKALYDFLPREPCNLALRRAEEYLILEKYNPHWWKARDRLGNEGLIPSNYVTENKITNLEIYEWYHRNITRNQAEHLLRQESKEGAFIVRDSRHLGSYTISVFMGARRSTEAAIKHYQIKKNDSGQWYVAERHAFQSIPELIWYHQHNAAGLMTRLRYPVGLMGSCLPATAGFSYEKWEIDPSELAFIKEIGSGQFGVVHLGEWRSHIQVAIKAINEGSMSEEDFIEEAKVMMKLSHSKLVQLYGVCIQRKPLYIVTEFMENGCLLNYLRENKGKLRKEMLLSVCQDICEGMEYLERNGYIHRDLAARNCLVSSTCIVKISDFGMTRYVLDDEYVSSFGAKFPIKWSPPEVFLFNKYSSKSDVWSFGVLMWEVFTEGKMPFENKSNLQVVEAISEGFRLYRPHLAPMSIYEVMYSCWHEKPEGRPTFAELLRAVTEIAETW

CC[C@@]1(c2ccccc2)C2=C(CC(C)(C)CC2=O)Nc2n[nH]cc21 [BRD0705]
% Inhibition at 10 μM (CDC2/CycB1): 17.2%
% Inhibition at 10 μM (IGF1R): −2.5%
% Inhibition at 10 μM (CDC7/ASK): −7.2%
% Inhibition at 10 μM (NEK7): −1.0%
% Inhibition at 10 μM (MAP2K5_Cascade): −2.3%
% Inhibition at 10 μM (FGR): −3.4%
% Inhibition at 10 μM (PKR): 2.0%
% Inhibition at 10 μM (NEK1): −9.6%
% Inhibition at 10 μM (TAK1-TAB1_Cascade): 5.0%
% Inhibition at 10 μM (Erk5): −7.9%
% Inhibition at 10 μM (MAP2K2_Cascade): 1.3%
% Inhibition at 10 μM (RET(M918T)): −2.9%
% Inhibition at 10 μM (CLK2): −3.0%
% Inhibition at 10 μM (EPHA2): −2.6%
% Inhibition at 10 μM (MINK): 2.4%
% Inhibition at 10 μM (SYK): 0.6%
% Inhibition at 10 μM (FGFR3(K650M)): −2.7%
% Inhibition at 10 μM (PHKG1): −2.5%
% Inhibition at 10 μM (ARG): 1.1%
% Inhibition at 10 μM (BRSK1): −1.6%
% Inhibition at 10 μM (CDK7/CycH/MAT1): 8.3%
% Inhibition at 10 μM (DYRK1A): −3.1%
% Inhibition at 10 μM (JNK2): −2.5%
% Inhibition at 10 μM (HIPK3): −7.6%
% Inhibition at 10 μM (PGK): −2.1%
% Inhibition at 10 μM (WNK2): −5.0%
% Inhibition at 10 μM (CHK1): 2.9%
% Inhibition at 10 μM (CRIK): −15.2%
% Inhibition at 10 μM (PASK): 0.2%
% Inhibition at 10 μM (EGFR(d746-750/T790M)): −3.5%
% Inhibition at 10 μM (YES): 7.9%
% Inhibition at 10 μM (AurA): 6.1%
% Inhibition at 10 μM (MAP4K2): −0.7%
% Inhibition at 10 μM (AXL): 3.7%
% Inhibition at 10 μM (CaMK4): −7.1%
% Inhibition at 10 μM (TXK): −1.7%
% Inhibition at 10 μM (KIT(D816V)): 3.5%
% Inhibition at 10 μM (CaMK2β): −9.0%
% Inhibition at 10 μM (ABL(E255K)): −0.3%
% Inhibition at 10 μM (SRC): 3.2%

CC(C)(C)Cc1[nH]nc2c1[C@](C)(c1ccccc1)C1=C(CC(C)(C)CC1=O)N2 [BRD3731]
% Inhibition 10 μM (CDC2/CycB1; 10 μM): 27.8%
% Inhibition 10 μM (IGF1R; 10 μM): −1.5%
% Inhibition 10 μM (CDC7/ASK; 10 μM): −3.1%
% Inhibition 10 μM (NEK7; 10 μM): −3.2%
% Inhibition 10 μM (MAP2K5_Cascade; 10 μM): 6.1%
% Inhibition 10 μM (FGR; 10 μM): 12.0%
% Inhibition 10 μM (PKR; 10 μM): 3.1%
% Inhibition 10 μM (NEK1; 10 μM): −0.1%
% Inhibition 10 μM (TAK1-TAB1_Cascade; 10 μM): 1.7%
% Inhibition 10 μM (Erk5; 10 μM): 4.5%
% Inhibition 10 μM (MAP2K2_Cascade; 10 μM): −0.4%
% Inhibition 10 μM (RET(M918T); 10 μM): −2.2%
% Inhibition 10 μM (CLK2; 10 μM): 6.1%
% Inhibition 10 μM (EPHA2; 10 μM): 3.2%
% Inhibition 10 μM (MINK; 10 μM): 2.2%
% Inhibition 10 μM (SYK; 10 μM): −11.0%
% Inhibition 10 μM (FGFR3(K650M); 10 μM): 0.8%
% Inhibition 10 μM (PHKG1; 10 μM): 13.9%
% Inhibition 10 μM (ARG; 10 μM): 6.4%
% Inhibition 10 μM (BRSK1; 10 μM): 7.9%
% Inhibition 10 μM (CDK7/CycH/MAT1; 10 μM): 21.3%
% Inhibition 10 μM (DYRK1A; 10 μM): 3.3%
% Inhibition 10 μM (JNK2; 10 μM): −3.9%
% Inhibition 10 μM (HIPK3; 10 μM): 3.2%
% Inhibition 10 μM (PGK; 10 μM): 1.9%
% Inhibition 10 μM (WNK2; 10 μM): 1.6%
% Inhibition 10 μM (CHK1; 10 μM): −16.4%
% Inhibition 10 μM (CRIK; 10 μM): −0.7%
% Inhibition 10 μM (PASK; 10 μM): 10.7%
% Inhibition 10 μM (EGFR(d746-750/T790M); 10 μM): 3.7%
% Inhibition 10 μM (YES; 10 μM): 1.6%
% Inhibition 10 μM (AurA; 10 μM): 15.4%
% Inhibition 10 μM (MAP4K2; 10 μM): −7.5%
% Inhibition 10 μM (AXL; 10 μM): 3.8%
% Inhibition 10 μM (CaMK4; 10 μM): 12.4%
% Inhibition 10 μM (TXK; 10 μM): 1.3%
% Inhibition 10 μM (KIT(D816V); 10 μM): −1.7%
% Inhibition 10 μM (CaMK2β; 10 μM): 0.3%
% Inhibition 10 μM (ABL(E255K); 10 μM): 8.3%
% Inhibition 10 μM (SRC; 10 μM): 1.0%
